Where a name gives a salt, the structure may show the parent alone.
Columns and labels:
[1] = tested on: spontaneously hypertensive stroke-prone rats (SHRSP); experiment: Passive avoidance response test with SHRSP (attention deficit/hyperactivity disorder model); format: in vivo, rat; conditions: for Minimum effective dose: 30 min before test; for Effect on cumulative entry latency of SHRSP: sum of entry latency of 2nd to 5th trial, compared with solvent group
Method: Verification of the therapeutic effect on attention deficit/hyperactivity disorder was carried out using spontaneously hypertensive stroke-prone rats (SHRSP). […] The method of Fox et al. (Fox, G. B. et al., Behay. Brain. Res., 131: 151-161, 2002) was partially modified, and the drug action on attention deficit/hyperactivity disorder was verified using a passive avoidance response test with SHRSP. That is, a solvent (vehicle), or dilutions prepared by diluting methylphenidate, compound (1), compound (2), compound (3), compound (4), and compound (5), with a solvent at multiple concentrations were administered to the rats in each group. Methylphenidate was subcutaneously administered, and compounds (1) to (5) were orally administered. As the solvent, physiological saline was used for methylphenidate and a 0.5% aqueous solution of methylcellulose was used for compounds (1) to (5). After 30 minutes of each drug administration, rats were placed in the bright room of the passive avoidance response measurement apparatus, and the time required for the rat to enter the dark room (entry latency) was measured. The longest time for measurement was 180 seconds. When rats entered in the dark room, a very weak electric current was forced to flow from a foot grid in the dark room. This trial was repeated five times, and the sum of the entry latency from 2nd time to 5th time (cumulative entry latency) was adopted as an indicator of the therapeutic effect on attention deficit/hyperactivity disorder. The test of significance difference was carried out between the solvent administered group and the drug administered groups, using Dunnett's test.

BEC1 potassium channel [2] = target: T1, BEC1 potassium channel (Homo sapiens, UniProt Q9ULD8); experiment: BEC1 inhibitory activity by 86Rb ion release from BEC1 expressing cells; format: cell-based; design: expressed in transfected cells; conditions: 86Rb release, BEC1 stably expressing CHO (dhfr-deficient) cells, 100 mM KCl stimulation; read-out: BEC1 Inhibittory Activity IC50
T1 sequence (Q9ULD8 1-1083): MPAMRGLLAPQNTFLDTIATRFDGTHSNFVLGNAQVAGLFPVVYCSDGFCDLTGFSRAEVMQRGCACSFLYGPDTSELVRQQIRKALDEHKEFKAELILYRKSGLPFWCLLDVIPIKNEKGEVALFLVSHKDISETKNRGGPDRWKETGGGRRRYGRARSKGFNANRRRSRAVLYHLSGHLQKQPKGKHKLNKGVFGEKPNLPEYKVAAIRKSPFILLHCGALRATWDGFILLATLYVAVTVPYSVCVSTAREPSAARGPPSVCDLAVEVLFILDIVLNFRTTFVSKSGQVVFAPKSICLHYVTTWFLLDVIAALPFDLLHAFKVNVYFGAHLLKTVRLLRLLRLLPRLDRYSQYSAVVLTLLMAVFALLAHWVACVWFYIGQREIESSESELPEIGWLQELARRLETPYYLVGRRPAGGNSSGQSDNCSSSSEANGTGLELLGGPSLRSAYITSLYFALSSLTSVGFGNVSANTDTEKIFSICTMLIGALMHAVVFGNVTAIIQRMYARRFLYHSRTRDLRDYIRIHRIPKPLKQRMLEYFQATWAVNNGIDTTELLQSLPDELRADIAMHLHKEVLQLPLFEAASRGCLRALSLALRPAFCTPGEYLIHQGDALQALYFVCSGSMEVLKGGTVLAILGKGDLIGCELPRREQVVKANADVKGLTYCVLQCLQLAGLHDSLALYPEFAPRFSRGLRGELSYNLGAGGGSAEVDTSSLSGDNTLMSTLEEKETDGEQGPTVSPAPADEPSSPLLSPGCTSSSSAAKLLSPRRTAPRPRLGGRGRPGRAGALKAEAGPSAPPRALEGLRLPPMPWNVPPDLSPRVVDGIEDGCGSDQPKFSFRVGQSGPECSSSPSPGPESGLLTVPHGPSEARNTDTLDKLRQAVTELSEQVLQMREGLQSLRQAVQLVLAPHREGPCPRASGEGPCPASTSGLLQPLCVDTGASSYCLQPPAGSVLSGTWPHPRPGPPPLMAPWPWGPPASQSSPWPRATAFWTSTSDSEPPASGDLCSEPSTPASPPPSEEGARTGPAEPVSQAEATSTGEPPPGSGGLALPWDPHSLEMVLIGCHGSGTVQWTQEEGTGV
Method: Method for measuring BEC1 inhibitory activity of compound utilizing 86Rb ion release amount as indicator
The channel activity of BEC1 was measured according to the method described in U.S. Pat. No. 6,326,168 utilizing the release of the ions of radioactive isotope 86Rb from BEC1 expressing cells as an indicator. Specifically, when BEC1 expressing cells which had taken in 86Rb ions were stimulated with 100 mM KCl, the radioactivity released from the cells was designated as the channel activity of BEC1. 86Rb ions were incorporated into cells by culturing (3 hours, 37° C.) BEC1 stably expressing cells in the presence of 86RbCl (0.5 μCi/ml), and the unincorporated 86Rb ions were removed by washing the cells three times with HEPES buffered physiological saline (pH 7.4, 2.5 mM KCl). […]
The Cherenkov radioactivities of the extracellular fluid and the cell lysate were respectively measured, and the sum was designated as the total radioactivity. The release amount of 86Rb ions was expressed as the percentage of the radioactivity of the extracellular fluid to the total radiation activity. […] The inhibitory action of the compound was indicated as the IC50 value determined from the inhibition % (that is, (control value—test value)×100/(control value—blank value)). […]

BEC1 potassium channel [3] = target: T1, BEC1 potassium channel; conditions: background statement; cited from earlier work
[4] = oral, smallest dose giving significantly longer cumulative entry latency than solvent group (Dunnett's test)

Row | Compound | Minimum effective dose [1, 4] | Effect on cumulative entry latency of SHRSP [1] | further results
1 | Fc1ccc(Nc2nc(NCc3ncccn3)nc(Nc3ccc(F)cc3)n2)cc1 (as salt: HCl) [(2), N,N′-bis(4-fluorophenyl)-N″-(pyrimidin-2-ylmethyl)-1,3,5-triazine-2,4,6-triamine] |  |  | melting point: 183 to 186 °C
2 | Fc1ccc(Nc2nc(NCc3ncccn3)nc(Nc3ccc(F)cc3)n2)cc1 [(2), N,N′-bis(4-fluorophenyl)-N″-(pyrimidin-2-ylmethyl)-1,3,5-triazine-2,4,6-triamine] | 0.03 mg/kg p.o. | prolonged the cumulative entry latency | 
3 | COc1ccc(Nc2nc(NCc3ncccn3)nc(Nc3ccc(F)cc3)n2)cc1 [(3), N-(4-fluorophenyl)-N′-(4-methoxyphenyl)-N″-(pyrimidin-2-ylmethyl)-1,3,5-triazine-2,4,6-triamine] | 0.3 mg/kg p.o. | prolonged the cumulative entry latency | 
4 | Fc1ccc(Nc2nc(NCc3ccncn3)nc(Nc3ccc(F)cc3)n2)cc1 [(4), N,N′-bis(4-fluorophenyl)-N″-(pyrimidin-4-ylmethyl)-1,3,5-triazine-2,4,6-triamine] | 0.03 mg/kg p.o. | prolonged the cumulative entry latency | 
5 | Cl.Nc1nc(Nc2ccc(F)cc2)nc(N(Cc2ccnc(F)c2)c2ccccc2)n1 [(5), N-(4-fluorophenyl)-N′-[(2-fluoro-4-pyridyl)methyl]-N′-phenyl-1,3,5-triazine-2,4,6-triamine hydrochloride] | 3 mg/kg p.o. | prolonged the cumulative entry latency | IC50 (BEC1 potassium channel [2]): 0.085 µM
6 | Fc1ccc(Nc2nc(NCc3ncccn3)nc(Nc3ccccc3)n2)cc1 [Compound (1), N-(4-fluorophenyl)-N′-phenyl-N″-(pyrimidin-2-ylmethyl)-1,3,5-triazine-2,4,6-triamine] | 0.1 mg/kg p.o. | prolonged the cumulative entry latency | 
7 | COC(=O)C(c1ccccc1)C1CCCCN1 (stereo not shown) [Methylphenidate, methylphenidate, reference compound] |  | prolonged the cumulative entry latency | Minimum effective dose ([1]; subcutaneous (sc), smallest dose giving significantly longer cumulative entry latency than solvent group): 0.1(sc) mg/kg
8 | C=C[C@H]1C[N@@]2CC[C@H]1C[C@@H]2[C@@H](O)c1ccnc2ccc(OC)cc12 [quinidine] |  |  | Inhibition of BEC1 potassium channels (BEC1 potassium channel [3]): do not inhibit
9 | CC[N+](CC)(CC)CC [tetraethylammonium] |  |  | Inhibition of BEC1 potassium channels (BEC1 potassium channel [3]): do not inhibit

From US20120088772A1, “NOVEL PHARMACEUTICAL COMPOSITION FOR PREVENTION AND/OR TREATMENT OF ATTENTION DEFICIT/HYPERACTIVITY DISORDER” (ASTELLAS PHARMA INC., priority 2009, published 2012)
